Results published in US11458141B2, “Aryl hydrocarbon receptor (AhR) agonists for the prevention and treatment of inflammatory disorders” (The Johns Hopkins University, priority 2017, dated 2022).
Entries after “also recorded” stand apart in the source; their conditions may differ.

Experiments:
[1] = test system: Toll-like receptor 4 (Tlr4) mRNA in IEC-6 cells; test: Tlr4 mRNA and microRNA expression in IEC-6 cells treated with I3C; type: cell-based, rat
Description: Rat intestinal epithelial cell line IEC-6 was treated with aryl hydrocarbon receptor (AHR) agonist indole-3-carbinol (13C) for 4 and 6 hours, and then the expression of Toll-like receptor 4 (Tlr4) mRNA and the microRNAs, which have been reported to down-regulate Tlr4 transcription, were quantified, respectively. Referring now to FIG. 22, the mRNA expression of Tlr4 was quantified in IEC-6 cells treated with AHR agonist […] for 6 hours. Data are represented as mean±SEM; *p<0.05 between indicated groups; each dot represents an individual sample. […] Referring now to FIG. 23, the expression of let-7i, miR-223, and miR-146b, which are microRNAs known to inhibit Tlr4 mRNA expression, was quantified in IEC-6 cells treated with AHR agonist […] for 4 hours. Data are represented as mean±SEM; *p<0.05 between indicated groups; each dot represents an individual sample.

mice with NEC = test: Experimental NEC model in 7-day-old mice (formula gavage, hypoxia, NEC stool bacteria), NEC severity; type: in vivo, mouse; conditions: for NEC severity: I3C oral 50 mg/kg/day, 50 mg/kg/day
From the text: The development of NEC requires TLR4 signaling in the intestinal epithelium. In seeking to understand the biological underpinnings of NEC, it has been discovered that activation within the intestinal epithelium of the receptor for gram-negative bacteria, namely toll-like receptor 4 (TLR4), is critical for the development of NEC. […] Further, mice that lack TLR4 in the intestinal epithelium (herein referred to as TLR4^ΔIEC mice) or globally (TLR4^−/−) were generated and then subjected to the well validated NEC model at 7 days of age. Mice were gavaged with formula, i.e., Similac Advance infant formula (Abbott Nutrition):Esbilac canince milk replacer (PetAb) in a 2:1 ratio at 50 μL/g every 3 hours, 10 mins hypoxia (5% O2 95% N2 in a Billups-Rothenberg chamber) twice daily for four days, and oral gavage of bacteria (1×10^5 cfu/mL) obtained from the stool of a patient with severe NEC. This experimental protocol induces patchy small intestinal necrosis, intestinal edema, and mucosal disruption very similar to human NEC in wild-type mice (FIG. 10), while mice lacking TLR4 in the intestinal epithelium (TLR4^ΔIEC mice) or globally (TLR4^−/−) were protected from NEC development. Mechanistically, TLR4 activation in the intestinal epithelium leads to an increase in apoptosis and a reduction in proliferation within the intestinal epithelium which leads to mucosal injury (FIG. 11). […]
Another aspect of the presently disclosed subject matter was to identify novel agonists of AHR which could be orally administered to prevent or treat experimental NEC, and which have greater potency and pharmacokinetic properties than the dietary-derived ligand I3C. To do so, an AHR-luciferase screen in intestinal epithelial cells (IEC-6 cells) was developed, then compound libraries were screened, and validation in vitro and in vivo using readouts of AHR activation by measuring the expression of Cyp1 was performed. […]

OCc1c[nH]c2ccccc12 [I3C, indole-3-carbinol]
expression of let-7i ([1]; 4 hours): significantly increased | expression of miR-146b ([1]; 4 hours): significantly increased | expression of miR-223 ([1]; 4 hours): significantly increased | mRNA expression of Tlr4 ([1]; 6 hours): significantly reduced the expression of Tlr4 mRNA | NEC severity (mice with NEC; AHR-/- mice): but not AHR^−/− mice; also recorded: does not protect | expression of proinflammatory gene IL-1 (mice with NEC; mice afflicted with NEC): reduced the expression of proinflammatory gene IL-1 | NEC severity (mice with NEC; wild-type mice): reduces NEC severity; also recorded: limits NEC severity
